One test has as its target 5-HT2C receptor (Homo sapiens, UniProt P28335). Nature of the test: R-SAT competitive antagonist assay.
Another test deals with T1, M4 muscarinic receptor (Homo sapiens, UniProt P08173).
T1 sequence (P08173 1-479): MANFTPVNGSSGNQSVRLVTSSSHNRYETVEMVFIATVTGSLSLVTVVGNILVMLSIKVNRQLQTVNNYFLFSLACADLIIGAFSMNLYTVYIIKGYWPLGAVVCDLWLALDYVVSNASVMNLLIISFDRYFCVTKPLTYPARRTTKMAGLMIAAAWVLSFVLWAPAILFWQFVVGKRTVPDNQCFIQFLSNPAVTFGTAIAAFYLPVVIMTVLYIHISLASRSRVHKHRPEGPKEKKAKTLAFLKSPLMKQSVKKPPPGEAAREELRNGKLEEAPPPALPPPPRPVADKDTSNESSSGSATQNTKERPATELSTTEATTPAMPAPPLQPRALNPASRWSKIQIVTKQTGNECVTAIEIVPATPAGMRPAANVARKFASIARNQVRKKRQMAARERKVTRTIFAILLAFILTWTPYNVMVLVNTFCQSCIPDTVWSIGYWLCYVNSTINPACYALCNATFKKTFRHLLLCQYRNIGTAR
Put plainly: R-SAT agonist assay. It counts as cell-based. On the set-up: expressed in transfected cells; host or cells: NIH/3T3. As to conditions: relative to carbachol, No response/nr = no agonist activity up to 10 μM.

The next test concerns the target T2, M1 muscarinic receptor (Homo sapiens, UniProt P11229).
T2 sequence (P11229 1-460): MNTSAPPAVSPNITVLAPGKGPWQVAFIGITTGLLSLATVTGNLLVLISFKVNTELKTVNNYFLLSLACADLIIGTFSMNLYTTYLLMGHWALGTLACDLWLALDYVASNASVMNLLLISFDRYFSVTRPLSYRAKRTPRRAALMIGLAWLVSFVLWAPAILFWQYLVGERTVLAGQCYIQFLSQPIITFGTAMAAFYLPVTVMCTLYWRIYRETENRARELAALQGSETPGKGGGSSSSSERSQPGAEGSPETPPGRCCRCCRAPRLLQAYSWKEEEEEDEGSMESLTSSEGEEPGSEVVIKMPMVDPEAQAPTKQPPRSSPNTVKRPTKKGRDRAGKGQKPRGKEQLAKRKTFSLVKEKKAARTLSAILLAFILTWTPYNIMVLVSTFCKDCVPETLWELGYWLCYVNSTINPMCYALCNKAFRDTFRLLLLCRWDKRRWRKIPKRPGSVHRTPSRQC
Nature of the test: R-SAT agonist assay. On the set-up: expressed in transfected cells; host or cells: NIH/3T3. The test is classed as cell-based.

The target in the next test is 5HT7 receptors (Homo sapiens, UniProt P34969). Nature of the test: Ligand binding screen at 10 μM.
Another test has as its target D1 receptors (Homo sapiens, UniProt P21728). Put plainly: Ligand binding screen at 10 μM.
For the next test, the target named is M3 muscarinic receptor (Homo sapiens, UniProt P20309). Put plainly: R-SAT agonist assay.
In the next test the target is M2 receptors (Homo sapiens, UniProt P08172). Put plainly: Ligand binding screen at 10 μM.
The next test concerns Ca^2+ channels. Nature of the test: Ligand binding screen at 10 μM.
For a further test, the target named is T3, M5 muscarinic receptor (Homo sapiens, UniProt P08912).
T3 sequence (P08912 1-532): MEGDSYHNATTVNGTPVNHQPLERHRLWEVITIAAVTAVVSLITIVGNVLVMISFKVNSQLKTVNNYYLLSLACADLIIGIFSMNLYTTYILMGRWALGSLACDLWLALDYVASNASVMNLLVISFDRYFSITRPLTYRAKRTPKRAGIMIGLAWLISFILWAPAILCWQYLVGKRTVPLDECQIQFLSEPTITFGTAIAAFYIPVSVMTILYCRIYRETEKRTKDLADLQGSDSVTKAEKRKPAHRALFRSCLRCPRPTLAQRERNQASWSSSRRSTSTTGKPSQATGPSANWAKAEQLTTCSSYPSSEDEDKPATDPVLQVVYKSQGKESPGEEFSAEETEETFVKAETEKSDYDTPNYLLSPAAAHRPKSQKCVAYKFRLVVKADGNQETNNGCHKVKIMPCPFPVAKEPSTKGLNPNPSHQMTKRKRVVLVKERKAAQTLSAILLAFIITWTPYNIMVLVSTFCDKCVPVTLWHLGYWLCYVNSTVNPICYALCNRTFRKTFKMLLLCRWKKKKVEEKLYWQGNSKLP
Put plainly: R-SAT competitive antagonist assay. As to conditions: nr = no significant antagonist or inverse agonist activity up to 1 μM, nr* = nr but significant agonist activity.

In test [1] the test system is MK-801-induced hyperactivity. Nature of the test: Reversal of MK-801-induced hyperactivity. The test is classed as in vivo, Non-Swiss Albino (NSA) mice. The source says:
Clinically effective antipsychotic drugs can block the behavioral effects of non-competitive N-methyl-D-aspartate […], such as MK-801. […]. […]

1 compound from patent US20050085463A1 (priority 2003, published 2005) can be followed below.

Several values for one entry are separate records, joined by “and”; a condition that tells them apart may be missing. Identical values can stand only once. Where only a bound is given, the exact number is not on record here.

Chain of M3 muscarinic receptor (P20309 whole entry): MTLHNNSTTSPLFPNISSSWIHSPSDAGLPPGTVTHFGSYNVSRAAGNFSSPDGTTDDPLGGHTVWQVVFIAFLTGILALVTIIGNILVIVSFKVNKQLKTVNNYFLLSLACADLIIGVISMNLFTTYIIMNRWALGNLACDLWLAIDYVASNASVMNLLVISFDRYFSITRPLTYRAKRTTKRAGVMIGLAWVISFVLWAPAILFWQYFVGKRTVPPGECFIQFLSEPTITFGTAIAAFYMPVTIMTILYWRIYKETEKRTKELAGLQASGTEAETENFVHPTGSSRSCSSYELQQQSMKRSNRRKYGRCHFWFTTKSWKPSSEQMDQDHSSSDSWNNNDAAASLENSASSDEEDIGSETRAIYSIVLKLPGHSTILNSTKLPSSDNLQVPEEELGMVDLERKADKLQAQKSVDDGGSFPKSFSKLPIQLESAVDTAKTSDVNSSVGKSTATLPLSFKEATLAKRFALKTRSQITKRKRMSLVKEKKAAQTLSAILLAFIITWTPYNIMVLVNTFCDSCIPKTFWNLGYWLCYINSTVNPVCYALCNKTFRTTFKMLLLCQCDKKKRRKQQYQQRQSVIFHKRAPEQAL
Chain of 5-HT2C receptor (P28335 33-458): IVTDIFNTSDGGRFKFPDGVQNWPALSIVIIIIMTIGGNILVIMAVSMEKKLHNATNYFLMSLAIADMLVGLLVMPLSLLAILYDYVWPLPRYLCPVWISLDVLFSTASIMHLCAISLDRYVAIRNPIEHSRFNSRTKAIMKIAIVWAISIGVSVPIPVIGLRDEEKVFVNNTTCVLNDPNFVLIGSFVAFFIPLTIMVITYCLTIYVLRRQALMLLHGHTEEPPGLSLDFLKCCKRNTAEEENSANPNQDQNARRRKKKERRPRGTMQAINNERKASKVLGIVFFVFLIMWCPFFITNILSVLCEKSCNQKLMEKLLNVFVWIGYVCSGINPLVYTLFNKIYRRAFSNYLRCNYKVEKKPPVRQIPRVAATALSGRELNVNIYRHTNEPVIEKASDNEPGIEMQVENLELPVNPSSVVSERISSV
Chain of 5HT7 receptors (P34969 whole entry): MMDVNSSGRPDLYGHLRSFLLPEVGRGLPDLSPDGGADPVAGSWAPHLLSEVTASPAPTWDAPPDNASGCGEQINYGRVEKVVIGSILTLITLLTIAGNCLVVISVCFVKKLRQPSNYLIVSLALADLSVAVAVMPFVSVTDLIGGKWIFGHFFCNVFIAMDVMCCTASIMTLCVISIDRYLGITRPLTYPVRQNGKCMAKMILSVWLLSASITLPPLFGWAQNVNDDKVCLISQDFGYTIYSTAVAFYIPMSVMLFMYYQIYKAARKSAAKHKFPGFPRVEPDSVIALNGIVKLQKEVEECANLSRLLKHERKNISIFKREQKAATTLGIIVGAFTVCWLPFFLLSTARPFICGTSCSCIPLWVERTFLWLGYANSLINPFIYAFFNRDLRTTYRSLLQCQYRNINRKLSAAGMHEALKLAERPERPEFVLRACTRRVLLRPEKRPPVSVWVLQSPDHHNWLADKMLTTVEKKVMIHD
Chain of M2 receptors (P08172 whole entry): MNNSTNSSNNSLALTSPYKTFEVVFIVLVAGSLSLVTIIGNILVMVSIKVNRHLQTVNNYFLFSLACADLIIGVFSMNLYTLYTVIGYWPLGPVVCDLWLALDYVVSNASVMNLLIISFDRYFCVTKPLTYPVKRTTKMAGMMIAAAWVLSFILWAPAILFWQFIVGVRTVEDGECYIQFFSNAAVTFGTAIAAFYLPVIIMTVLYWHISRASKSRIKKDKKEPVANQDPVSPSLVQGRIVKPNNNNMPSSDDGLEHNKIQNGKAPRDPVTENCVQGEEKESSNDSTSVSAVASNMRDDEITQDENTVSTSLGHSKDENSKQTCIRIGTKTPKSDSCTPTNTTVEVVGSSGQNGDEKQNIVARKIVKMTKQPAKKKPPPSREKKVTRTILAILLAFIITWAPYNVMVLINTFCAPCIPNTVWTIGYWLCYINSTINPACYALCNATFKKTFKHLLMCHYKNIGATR
Chain of D1 receptors (P21728 whole entry): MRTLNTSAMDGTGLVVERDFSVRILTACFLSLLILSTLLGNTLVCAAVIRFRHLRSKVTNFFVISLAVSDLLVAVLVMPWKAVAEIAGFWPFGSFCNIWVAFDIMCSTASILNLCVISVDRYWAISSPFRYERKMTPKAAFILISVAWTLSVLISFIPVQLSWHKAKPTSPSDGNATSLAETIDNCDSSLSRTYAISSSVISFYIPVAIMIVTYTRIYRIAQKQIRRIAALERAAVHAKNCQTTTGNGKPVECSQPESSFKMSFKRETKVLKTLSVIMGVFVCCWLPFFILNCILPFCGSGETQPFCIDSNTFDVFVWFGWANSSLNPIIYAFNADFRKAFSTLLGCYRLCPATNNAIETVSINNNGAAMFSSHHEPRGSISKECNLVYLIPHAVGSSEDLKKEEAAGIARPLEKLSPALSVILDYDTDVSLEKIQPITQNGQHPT

As a reminder, the Ki is the dissociation constant of the complex between target and ligand, obtained from inhibition or displacement. A higher Ki goes with lower affinity. The term EC50 denotes the midpoint of the concentration-response curve. What is called inhibition is the change of the read-out against control, counted positive when it falls. Turning to `Clc1ccc2c(c1)N=C(N1CCNCC1)c1ccccc1N2` [NDMC, 8-chloro-11-(1-piperazinyl)-5H-dibenzo [b,e][1,4] diazepine], the inhibition constant Ki at 5-HT2C receptor is 15.8 nM; on M1 muscarinic receptor, 50 nM. Besides, at 5-HT2C receptor (R-SAT, nr = no significant antagonist or inverse agonist activity up to 1 μM, nr* = nr but significant agonist activity), the “pKi 5-HT2C, competitive antagonist” value is 7.8 ± 0.2. The “M4 Efficacy” value on M4 muscarinic receptor was 87 ± 8%. Moreover, the EC50 at M1 muscarinic receptor (M1 pEC50, R-SAT agonist) is 55 nM and 50.1 nM; at M3 muscarinic receptor (M3 pEC50, R-SAT agonist) it was 324 nM and 316 nM. Also, the inhibition at 10 µM on 5HT7 receptors, at D1 receptors and on M2 receptors was at least 90% in each case. Besides, the “M3 Efficacy” value at M3 muscarinic receptor (R-SAT, relative to carbachol, No response/nr = no agonist activity up to 10 μM) is listed as 27 ± 4%. For the same compound, in the test on Ca^2+ channels, the “inhibition of binding, Ca^2+ channels” value is on record as at least 90%. Moreover, at M5 muscarinic receptor, the “pKi M5, competitive antagonist” value was “nr*”. For the same compound, the “minimal effective dose, attenuation of MK-801-induced hyperactivity” value in [1] (p.o.) is recorded as 10 mg/kg; in test [1] (s.c.) it was 1 mg/kg.
